In experiment [1] the target is T1, Trace amine-associated receptor 1 (Homo sapiens, UniProt Q96RJ0).
T1 sequence (Q96RJ0 whole entry): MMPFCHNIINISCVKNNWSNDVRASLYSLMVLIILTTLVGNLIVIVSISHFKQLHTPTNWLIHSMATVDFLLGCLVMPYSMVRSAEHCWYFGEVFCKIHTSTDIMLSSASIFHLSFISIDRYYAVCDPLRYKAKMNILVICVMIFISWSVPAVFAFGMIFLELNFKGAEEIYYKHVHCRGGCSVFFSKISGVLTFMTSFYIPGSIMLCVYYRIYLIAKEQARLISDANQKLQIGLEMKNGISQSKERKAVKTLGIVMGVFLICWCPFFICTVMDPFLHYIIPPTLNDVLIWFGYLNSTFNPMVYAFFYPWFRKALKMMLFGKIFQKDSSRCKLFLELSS
The experiment is described as follows: Counterscreen for agonists of the human trace amine associated receptor 1 (hTAAR1): Fluorescence-based cell-based high throughput dose response assay to identify hTAAR1 agonist that also desensitize TAAR1 receptor response. The format is functional. (A counterscreen serves to expose hits that act by an unwanted route or on another target.)

Experiment [2] can be described thus: cells. The class given is functional, cell-based.
Experiment [3] deals with T2, Rac GTPase-activating protein 1 (Homo sapiens, UniProt Q9H0H5).
T2 sequence (Q9H0H5 whole entry): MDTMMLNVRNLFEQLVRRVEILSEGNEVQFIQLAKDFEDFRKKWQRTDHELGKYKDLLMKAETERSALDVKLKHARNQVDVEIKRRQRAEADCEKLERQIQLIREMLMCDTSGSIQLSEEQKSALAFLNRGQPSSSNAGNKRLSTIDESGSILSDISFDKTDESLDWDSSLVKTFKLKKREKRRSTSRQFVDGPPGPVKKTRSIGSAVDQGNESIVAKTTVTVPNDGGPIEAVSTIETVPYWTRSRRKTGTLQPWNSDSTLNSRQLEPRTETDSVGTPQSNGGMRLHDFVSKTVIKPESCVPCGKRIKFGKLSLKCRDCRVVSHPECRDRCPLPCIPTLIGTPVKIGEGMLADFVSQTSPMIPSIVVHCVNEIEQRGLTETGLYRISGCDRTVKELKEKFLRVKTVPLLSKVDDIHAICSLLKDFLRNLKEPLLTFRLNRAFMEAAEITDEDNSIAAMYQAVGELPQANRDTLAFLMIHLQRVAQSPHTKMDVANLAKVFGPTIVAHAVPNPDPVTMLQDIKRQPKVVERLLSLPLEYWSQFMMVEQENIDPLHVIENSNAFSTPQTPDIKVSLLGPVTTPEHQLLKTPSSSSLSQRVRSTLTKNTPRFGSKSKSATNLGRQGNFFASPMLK
Briefly: blockers of MgcRacGAP-driven Rac1 GTP hydrolysis – biochemical, ADP Hunter fluorescence, primary and confirmatory, confirmation (AID 624330). The format is functional.

Experiment [4] is described as follows: cells. The class given is functional, cell-based. The source holds these as a separate data set.
Experiment [5] deals with T1, Trace amine-associated receptor 1. The experiment is described as follows: Fluorescence-based cell-based high throughput dose response assay to identify agonists of the human trace amine associated receptor 1 (TAAR1). The format is functional.
For another experiment, the target named is T3, Caspase-3 (Homo sapiens, UniProt P42574).
T3 sequence (P42574 whole entry): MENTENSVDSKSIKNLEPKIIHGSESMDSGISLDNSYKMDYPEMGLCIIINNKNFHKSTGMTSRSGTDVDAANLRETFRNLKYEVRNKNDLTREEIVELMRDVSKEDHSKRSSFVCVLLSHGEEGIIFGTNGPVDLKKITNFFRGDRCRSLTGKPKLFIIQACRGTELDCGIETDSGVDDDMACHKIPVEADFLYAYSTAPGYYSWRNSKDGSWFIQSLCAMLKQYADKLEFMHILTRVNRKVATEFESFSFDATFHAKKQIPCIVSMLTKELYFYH
The experiment is described as follows: SAR Analysis of small molecule inhibitors of Sentrin-specific proteases (SENPs) using a Caspase-3 Selectivity assay. [Related pubchem assays (depositor defined):AID2540, AID2599, AID434973, AID489001]. The format is functional.

Experiment [6] addresses T4, Sentrin-specific protease 8 (Homo sapiens, UniProt Q96LD8).
T4 sequence (Q96LD8 whole entry): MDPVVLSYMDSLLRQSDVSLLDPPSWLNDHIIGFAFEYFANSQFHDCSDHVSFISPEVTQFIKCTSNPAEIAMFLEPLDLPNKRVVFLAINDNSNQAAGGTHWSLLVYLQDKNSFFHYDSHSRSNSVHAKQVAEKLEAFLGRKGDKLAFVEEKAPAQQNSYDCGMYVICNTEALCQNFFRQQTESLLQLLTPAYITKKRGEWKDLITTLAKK
Briefly: inhibition of human SENP8 cleavage activity – biochemical, luminescence, SAR follow-up (AID 504501). The format is functional.

Experiment [7] has as its target T5, Sentrin-specific protease 7 (Homo sapiens, UniProt Q9BQF6).
T5 sequence (Q9BQF6 whole entry): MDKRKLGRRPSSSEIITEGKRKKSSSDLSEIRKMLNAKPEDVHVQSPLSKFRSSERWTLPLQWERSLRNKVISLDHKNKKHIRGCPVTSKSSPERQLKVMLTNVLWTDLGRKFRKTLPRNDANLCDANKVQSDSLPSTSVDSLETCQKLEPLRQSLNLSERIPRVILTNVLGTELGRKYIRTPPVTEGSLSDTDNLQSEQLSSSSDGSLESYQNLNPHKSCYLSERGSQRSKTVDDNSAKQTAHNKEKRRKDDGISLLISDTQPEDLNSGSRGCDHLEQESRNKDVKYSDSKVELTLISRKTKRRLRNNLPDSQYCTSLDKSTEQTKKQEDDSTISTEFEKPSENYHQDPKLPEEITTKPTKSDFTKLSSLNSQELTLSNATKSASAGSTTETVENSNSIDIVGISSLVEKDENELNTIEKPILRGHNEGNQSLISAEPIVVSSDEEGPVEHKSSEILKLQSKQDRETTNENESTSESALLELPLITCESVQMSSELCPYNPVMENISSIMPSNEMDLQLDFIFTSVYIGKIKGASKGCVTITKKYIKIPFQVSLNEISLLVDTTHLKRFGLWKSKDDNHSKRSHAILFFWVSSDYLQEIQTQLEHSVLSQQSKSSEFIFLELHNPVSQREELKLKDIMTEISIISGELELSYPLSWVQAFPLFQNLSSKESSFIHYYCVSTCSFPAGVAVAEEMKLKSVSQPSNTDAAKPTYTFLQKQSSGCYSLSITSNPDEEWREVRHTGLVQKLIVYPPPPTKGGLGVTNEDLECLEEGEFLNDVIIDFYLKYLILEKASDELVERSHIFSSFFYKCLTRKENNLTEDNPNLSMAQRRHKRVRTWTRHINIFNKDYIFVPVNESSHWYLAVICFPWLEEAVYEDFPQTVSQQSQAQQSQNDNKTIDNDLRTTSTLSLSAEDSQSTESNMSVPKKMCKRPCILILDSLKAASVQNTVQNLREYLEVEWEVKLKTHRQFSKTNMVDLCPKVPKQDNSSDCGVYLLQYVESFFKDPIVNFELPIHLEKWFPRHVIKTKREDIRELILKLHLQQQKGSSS
Briefly: inhibition of human SENP7 cleavage activity – biochemical, luminescence, SAR follow-up (AID 504497). The format is functional.

In experiment [8] the target is T6, Sentrin-specific protease 6 (Homo sapiens, UniProt Q9GZR1).
T6 sequence (Q9GZR1 whole entry): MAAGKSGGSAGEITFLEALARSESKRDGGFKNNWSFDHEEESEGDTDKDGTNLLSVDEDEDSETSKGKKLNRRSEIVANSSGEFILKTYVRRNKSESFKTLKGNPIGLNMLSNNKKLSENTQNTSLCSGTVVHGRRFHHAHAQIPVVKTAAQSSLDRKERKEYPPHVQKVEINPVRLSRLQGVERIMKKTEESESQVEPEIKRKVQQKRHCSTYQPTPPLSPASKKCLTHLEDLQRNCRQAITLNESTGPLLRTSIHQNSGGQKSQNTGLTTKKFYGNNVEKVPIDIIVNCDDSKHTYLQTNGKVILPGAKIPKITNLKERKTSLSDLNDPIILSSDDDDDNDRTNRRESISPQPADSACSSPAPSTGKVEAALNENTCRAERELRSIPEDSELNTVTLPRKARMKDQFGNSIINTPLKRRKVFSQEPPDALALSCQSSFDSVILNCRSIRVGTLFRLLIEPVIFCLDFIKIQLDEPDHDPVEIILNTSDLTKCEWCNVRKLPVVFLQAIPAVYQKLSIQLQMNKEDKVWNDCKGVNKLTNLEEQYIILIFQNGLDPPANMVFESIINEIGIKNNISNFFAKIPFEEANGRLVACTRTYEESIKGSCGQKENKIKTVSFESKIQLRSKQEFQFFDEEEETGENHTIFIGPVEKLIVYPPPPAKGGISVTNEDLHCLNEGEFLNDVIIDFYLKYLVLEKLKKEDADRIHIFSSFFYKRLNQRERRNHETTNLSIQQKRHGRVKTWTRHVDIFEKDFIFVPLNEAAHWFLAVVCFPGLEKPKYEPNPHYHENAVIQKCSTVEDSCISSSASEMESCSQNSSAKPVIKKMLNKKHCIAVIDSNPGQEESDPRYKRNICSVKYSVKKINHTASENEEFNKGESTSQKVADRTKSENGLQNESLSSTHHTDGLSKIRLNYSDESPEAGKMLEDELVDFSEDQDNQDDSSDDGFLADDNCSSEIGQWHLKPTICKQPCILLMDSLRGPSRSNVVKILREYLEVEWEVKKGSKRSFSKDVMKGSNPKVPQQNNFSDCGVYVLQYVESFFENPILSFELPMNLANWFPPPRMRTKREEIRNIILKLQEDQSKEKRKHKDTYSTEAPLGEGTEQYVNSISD
The experiment is described as follows: SAR Analysis of small molecule inhibitors of Sentrin-specific protease 6 (SENP6) using a Luminescent assay. [Related pubchem assays (depositor defined):AID2582, AID2599]. The format is functional.

The next experiment has as its target Prothrombin (Homo sapiens, UniProt P00734). Briefly: Thrombin 1536 HTS Dose Response Confirmation. [Related pubchem assays: 1046 (Thrombin 1536 HTS; hits were confirmed in this assay)]. The class given is functional.
The target of another experiment is Melanocortin receptor 4 (Homo sapiens, UniProt P32245). The format is functional, cell-based.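 Also: Cell-based assay with luminescence read-out, confirmatory dose-response testing for agonist activity of biased ligands at MC4R; human U2OS cells with tagged receptor and beta-arrestin; potency of agonists that increase receptor coupling to beta-arrestin.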
Chain of Melanocortin receptor 4 (P32245 whole entry): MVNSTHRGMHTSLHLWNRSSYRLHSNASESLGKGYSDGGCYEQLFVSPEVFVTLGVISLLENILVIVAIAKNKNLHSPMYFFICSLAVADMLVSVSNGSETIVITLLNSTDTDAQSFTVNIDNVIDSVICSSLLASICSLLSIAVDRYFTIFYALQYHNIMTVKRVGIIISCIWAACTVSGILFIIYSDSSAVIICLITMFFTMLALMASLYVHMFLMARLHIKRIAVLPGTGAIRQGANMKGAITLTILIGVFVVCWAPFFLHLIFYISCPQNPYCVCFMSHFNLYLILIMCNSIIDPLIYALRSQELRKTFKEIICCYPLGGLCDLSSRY
For another experiment, the target named is Estrogen receptor beta (Homo sapiens, UniProt Q92731).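 Also: recombinant ER-beta bound to coactivator SRC1 peptide in presence of estradiol agonist; inhibitors block coactivator peptide binding and lower the FRET signal.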
Chain of Estrogen receptor beta (Q92731 whole entry): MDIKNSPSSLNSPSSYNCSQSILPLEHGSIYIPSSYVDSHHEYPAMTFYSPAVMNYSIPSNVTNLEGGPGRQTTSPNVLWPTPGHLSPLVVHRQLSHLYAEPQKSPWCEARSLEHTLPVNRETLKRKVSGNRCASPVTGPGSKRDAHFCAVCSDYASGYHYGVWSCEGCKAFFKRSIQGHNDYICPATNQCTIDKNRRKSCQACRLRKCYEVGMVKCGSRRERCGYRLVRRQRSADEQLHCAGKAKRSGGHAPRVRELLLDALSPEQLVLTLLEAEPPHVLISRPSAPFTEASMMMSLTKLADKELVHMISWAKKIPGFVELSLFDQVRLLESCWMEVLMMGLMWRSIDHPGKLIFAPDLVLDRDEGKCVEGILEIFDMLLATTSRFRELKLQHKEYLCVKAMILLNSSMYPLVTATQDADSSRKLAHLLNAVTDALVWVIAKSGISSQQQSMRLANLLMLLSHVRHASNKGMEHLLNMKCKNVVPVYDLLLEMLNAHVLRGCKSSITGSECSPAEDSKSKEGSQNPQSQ

Activity calls are given as the source filed them.

Consider `O=C(CN1CCc2ccccc2C1)Nc1ccccc1C(F)(F)F`, for which the IC50 is 11.1 µM (inactive) in experiment [1], 205 µM (active) in experiment [3] and > 29.9 µM (inactive) in the experiment “cells [4]”. For the same compound, the EC50 was > 29.9 µM (inactive) in “cells [2]” and 3.55 µM (active) in experiment [5].

Consider `Cc1ccc(S(=O)(=O)Nc2ccc3sc(NC(=O)c4ccccc4)nc3c2)cc1`, for which the IC50 (at Caspase-3; in experiment [6]; in [7]; in experiment [8]) was > 99 µM (inactive) throughout.

In the case of `O=C(COC(=O)Cc1ccccc1F)NCCc1ccccc1`, the IC50 in experiment [1] was 2.35 µM (active); in the experiment “cells [4]”, > 29.9 µM (inactive). For the same compound, the EC50 in “cells [2]” was > 29.9 µM (inactive); in [5], > 9.96 µM (active).

Regarding `CCOC(=O)N[C@H](C(=O)N1CCC[C@H]1C(=O)NCCc1ccccc1Cl)c1ccccc1`, the figures for the IC50 (in experiment [1]; in “cells [4]”) were 6.89 µM (active) and > 29.9 µM (inactive), respectively. The EC50 was > 29.9 µM (inactive) in the experiment “cells [2]” and 2.06 µM (active) in experiment [5].

For `Nc1nc(-c2ccccc2)cn1/N=C/c1ccccc1`, the concentration for half-maximal inhibition (IC50) in experiment [1] is 8.47 µM (active); in “cells [4]” it was > 29.9 µM (inactive). Also, the values for the EC50 (in the experiment “cells [2]”; in experiment [5]) were > 29.9 µM (inactive) and 1.49 µM (active), respectively.

On to `COc1ccc(N/N=C/c2cn(Cc3ccccc3)c3ccccc23)cc1`, for which the IC50 (on Caspase-3; in experiment [6]; in [7]; in experiment [8]) was > 99 µM (inactive) in each case.

As to `CCOC(=O)c1[nH]c2ccccc2c1NC(=S)Nc1ccccc1`, the IC50 at Prothrombin was 3.09 µM (active); in experiment [3], 108 µM (active).

`CS(=O)(=O)c1ccc2nc(NC(=O)c3cccc(NS(=O)(=O)c4ccccc4)c3)sc2c1`: the IC50 (on Caspase-3; in experiment [6]; in experiment [7]; in experiment [8]) was > 99 µM (inactive) each time.

Turning to `C/C(=N\NC(=O)COc1cccc2ccccc12)c1cccs1`, on Melanocortin receptor 4, the EC50 was > 89.2 µM (inactive).

As for `Cc1ccccc1-c1nc(-c2ccc(NC(=O)c3ccc(Br)o3)cc2)no1`, on Melanocortin receptor 4, the EC50 was > 89.2 µM (inactive).

In the case of `COc1ccc(-c2cc(NC=O)c3ncc(-c4cccc(C(F)(F)F)c4)n3c2)cc1OC`, at Melanocortin receptor 4, the EC50 was 12.4 µM (inactive).

`CCOC(=O)c1c(-c2ccc(Br)cc2)csc1NC(=O)C1CC1`: the IC50 (on Caspase-3; in experiment [6]; in experiment [7]; in [8]) was > 99 µM (inactive) in each case.

As to `NNc1nc(Nc2ccccc2)nc(N2CCCCC2)n1`, the IC50 in [1] was 8.76 µM (active); in “cells [4]”, > 29.9 µM (inactive). For the same compound, the results for the EC50 (in the experiment “cells [2]”; in experiment [5]) were > 29.9 µM (inactive) and 3.48 µM (active), respectively.

In the case of `CCOC(=O)CSc1nnc(NC(=O)c2cc([N+](=O)[O-])cc([N+](=O)[O-])c2)s1`, the IC50 against Prothrombin is reported as > 50 µM (not active).

Regarding `CCN(CC)S(=O)(=O)c1ccc(C(=O)NCc2ccc(C)cc2)cc1`, the IC50 at Estrogen receptor beta is > 50 µM (not active).

For the compound `CC(=O)n1nc(-c2ccccc2)nc1NCc1ccc(F)cc1`, on Prothrombin, the IC50 was 0.0165 µM (active).

`COc1ccc(CNC(=O)Nc2nc(C(N)Cc3ccc(C(F)(F)F)cc3)cs2)cc1` (stereo unspecified): the EC50 at Melanocortin receptor 4 is > 89.2 µM (inactive).

Broadly, the IC50 is the concentration that gives 50% inhibition. A word on the EC50: it is the concentration that produces a half-maximal response.

The values are drawn from ChEMBL document CHEMBL1201862, “PubChem BioAssay data set” (2004).
